The values that follow come from PMC10374582, “A BAHD-type acyltransferase concludes the biosynthetic pathway of non-bitter glycoalkaloids in ripe tomato fruit” (Nature Communications, 2023).

One series has as its target T1, SlGAME36 (Solanum lycopersicum, UniProt A0A3Q7HQH1).
T1 construct: gene LOC101247356; pET28/pET28b, E. coli BL21 (DE3), Ni-NTA purified His-tagged protein
The series is described as follows: LC-MS steady-state kinetics. Conditions: pH 7.5, 30 °C. The class given is biochemical. The source says: (§1) LC-MS steady-state kinetics on SlGAME36 | higher catalytic efficiency with hydroxytomatine (native substrate from tomato | hydroxysolamargine (SGA substrate from eggplant | preferred specificity toward acetyl CoA over butyryl CoA

For series [1], the system named is C[C@@H]1CNC2(O[C@H]3C[C@H]4[C@@H]5CC[C@H]6C[C@@H](O[C@@H]7O[C@H](CO)[C@H](O[C@@H]8O[C@H](CO)[C@@H](O)[C@H](O[C@@H]9OC[C@@H](O)[C@H](O)[C@H]9O)[C@H]8O[C@@H]8O[C@H](CO)[C@@H](O)[C@H](O)[C@H]8O)[C@H](O)[C@H]7O)CC[C@]6(C)[C@H]5CC[C@]4(C)[C@H]3[C@@H]2C)C(O)C1. The series is described as follows: LC-MS steady-state kinetics. The following applies: 500 µM acetyl CoA, pH 7.5, 30 °C. The class given is biochemical, Solanum lycopersicum.
Excerpt: as §1

The target in a further series is T2, SlGAME40 (Solanum lycopersicum, UniProt P10967).
T2 construct: gene ACO3; purified recombinant from E. coli
The series is described as follows: LC-MS product detection, sequential one-tube assay. In kind it is biochemical. The following applies: acetoxytomatine formed in situ by GAME31 and GAME36; α-ketoglutarate, ascorbate, Fe2+; pH 7.5, 30 °C.

Regarding `CCCC(=O)SCCNC(=O)CCNC(=O)[C@H](O)C(C)(C)COP(=O)(O)OP(=O)(O)OC[C@H]1O[C@@H](n2cnc3c(N)ncnc32)[C@H](O)[C@@H]1OP(=O)(O)O` [butyryl CoA], the Km (as a rule, the concentration of substrate that gives half-maximal velocity) at SlGAME36 (100 µM hydroxytomatine) was found to be 60.4 µM.
Take hydroxysolamargine: the Km on SlGAME36 (500 µM acetyl CoA) amounted to 7.89 µM.
On to `CC(=O)SCCNC(=O)CCNC(=O)[C@H](O)C(C)(C)COP(=O)(O)OP(=O)(O)OC[C@H]1O[C@@H](n2cnc3c(N)ncnc32)[C@H](O)[C@@H]1OP(=O)(O)O` [acetyl CoA], for which the Km at SlGAME36 (100 µM hydroxytomatine) turned out to be 24.2 µM.
Turning to SlGAME36 (Solanum lycopersicum), in series [1], the Km worked out at 14.43 µM and the catalytic constant (kcat) (as a rule, the maximal rate divided by the concentration of active sites) turned out to be 60.25 s⁻¹.
Take `CC(=O)OC1C[C@H](C)CNC12O[C@H]1C[C@H]3[C@@H]4CC[C@H]5C[C@@H](O[C@@H]6O[C@H](CO)[C@H](O[C@@H]7O[C@H](CO)[C@@H](O)[C@H](O[C@@H]8OC[C@@H](O)[C@H](O)[C@H]8O)[C@H]7O[C@@H]7O[C@H](CO)[C@@H](O)[C@H](O)[C@H]7O)[C@H](O)[C@H]6O)CC[C@]5(C)[C@H]4CC[C@]3(C)[C@H]1[C@@H]2C` (stereo partly drawn) [acetoxytomatine]: at SlGAME40, the “LC-MS product detection, sequential one-tube assay” value is recorded as “Sequential assays produced explicitly the expected pathway intermediates”.
